Test results: article PMC9858543, “Design, synthesis and evaluation of 2, 6, 8-substituted Imidazopyridine derivatives as potent PI3Kα inhibitors” (Journal of Enzyme Inhibition and Medicinal Chemistry, 2023)

Biological target: T1, PI3Kα (Homo sapiens, UniProt P42336)
T1 construct: purchased Invitrogen
Experiment: In vitro PI3Kα enzymatic assay (ADP-Glo / Kinase-Glo, ATP 25 μM)
Format: biochemical
Conditions: PI3Kα, compound 10 μM, ATP 25 μM, mean ± SD of three determinations; for inhibition at 10 µM: read-out: % Inhibition at 10 μM
Method: To screen the inhibitory activity of the target compounds against PI3Kα, the Kinase-Glo™ assay with ATP at 25 μM was utilised with PIK-75 as positive control. We chose to explore the SARs at three positions on the Imidazo[1,2-a]pyridine core. To start with, a set of 8-position modifications were prepared while keeping the morpholinyl amide substituent on 2-position fixed, since it allowed quick structure − activity profiling via coupling reactions of bromide with aryl borates or boronic acids. […] We then turned our attention back to the phenyl substituents.
Briefly, the compound, PI3K enzyme (PI3Kα from Invitrogen), the PIP2 (Life Technologies) substrate, and ATP (25 μM, Sigma) were diluted in kinase buffer to the indicated concentrations. The assay plate was covered and incubated at room temperature for 1 h. Then, the Kinase-Glo reagent (Promega) was added to the PI3Kα plate to stop the reaction, mixed briefly with centrifuge, shaken slowly on the shaker and then equilibrate for 120 min. Finally, add Kinase detection reagent to each well, shake 1 min, equilibrate for 30 min before reading on a plate reader for luminescence. The data were collected on Envision and presented in Excel. IC50 values were calculated from the inhibition curves.

T1 sequence (P42336 whole entry): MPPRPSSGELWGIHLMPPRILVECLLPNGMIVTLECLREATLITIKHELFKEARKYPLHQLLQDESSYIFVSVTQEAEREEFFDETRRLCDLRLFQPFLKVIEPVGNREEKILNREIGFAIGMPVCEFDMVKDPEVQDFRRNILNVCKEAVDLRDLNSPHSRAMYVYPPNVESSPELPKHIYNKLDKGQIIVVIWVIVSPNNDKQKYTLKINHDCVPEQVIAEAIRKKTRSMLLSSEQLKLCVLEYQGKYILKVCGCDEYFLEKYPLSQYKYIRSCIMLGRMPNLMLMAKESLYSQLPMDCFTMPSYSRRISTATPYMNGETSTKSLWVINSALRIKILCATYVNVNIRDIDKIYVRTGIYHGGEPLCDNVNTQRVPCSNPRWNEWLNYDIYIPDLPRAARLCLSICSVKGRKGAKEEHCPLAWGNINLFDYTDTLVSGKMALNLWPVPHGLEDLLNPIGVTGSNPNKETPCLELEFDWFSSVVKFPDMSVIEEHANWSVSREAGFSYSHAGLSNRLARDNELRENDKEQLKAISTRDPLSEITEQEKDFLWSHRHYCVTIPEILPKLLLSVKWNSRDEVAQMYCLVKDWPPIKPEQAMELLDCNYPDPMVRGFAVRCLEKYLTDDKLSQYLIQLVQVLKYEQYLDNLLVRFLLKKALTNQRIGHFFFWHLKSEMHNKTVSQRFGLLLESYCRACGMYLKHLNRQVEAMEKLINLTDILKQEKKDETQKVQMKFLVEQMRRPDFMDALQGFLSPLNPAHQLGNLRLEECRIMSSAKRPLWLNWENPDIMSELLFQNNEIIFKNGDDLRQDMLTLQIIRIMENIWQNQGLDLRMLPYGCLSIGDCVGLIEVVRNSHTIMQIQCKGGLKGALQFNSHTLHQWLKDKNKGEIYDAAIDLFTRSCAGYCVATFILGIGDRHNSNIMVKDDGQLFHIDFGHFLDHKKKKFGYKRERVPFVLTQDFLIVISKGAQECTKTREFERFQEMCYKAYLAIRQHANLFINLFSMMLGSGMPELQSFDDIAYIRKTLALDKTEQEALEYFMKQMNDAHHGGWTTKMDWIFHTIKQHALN
T1 sequence (P27986 whole entry partner): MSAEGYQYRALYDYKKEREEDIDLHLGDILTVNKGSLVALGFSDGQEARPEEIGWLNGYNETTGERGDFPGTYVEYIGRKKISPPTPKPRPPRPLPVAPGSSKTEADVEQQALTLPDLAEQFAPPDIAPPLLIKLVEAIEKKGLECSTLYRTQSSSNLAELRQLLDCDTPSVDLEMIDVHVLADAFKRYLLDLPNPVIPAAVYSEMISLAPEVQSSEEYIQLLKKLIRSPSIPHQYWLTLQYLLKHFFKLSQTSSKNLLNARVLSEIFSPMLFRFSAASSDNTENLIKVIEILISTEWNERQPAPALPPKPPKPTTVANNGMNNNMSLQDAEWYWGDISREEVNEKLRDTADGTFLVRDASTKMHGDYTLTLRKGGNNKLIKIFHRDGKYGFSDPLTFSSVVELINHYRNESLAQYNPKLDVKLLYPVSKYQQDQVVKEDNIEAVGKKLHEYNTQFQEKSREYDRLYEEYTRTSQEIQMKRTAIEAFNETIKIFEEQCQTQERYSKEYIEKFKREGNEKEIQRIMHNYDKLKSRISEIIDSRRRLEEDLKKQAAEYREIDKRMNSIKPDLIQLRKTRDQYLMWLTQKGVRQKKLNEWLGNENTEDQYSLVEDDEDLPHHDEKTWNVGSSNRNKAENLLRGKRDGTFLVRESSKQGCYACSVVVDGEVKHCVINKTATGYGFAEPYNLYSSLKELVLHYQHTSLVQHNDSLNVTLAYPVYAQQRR

Compound	% Inhibition at 10 μM	inhibition at 10 µM
1-Cyclohexyl-3–(3-(6-methyl-2–(4-methylpiperidine-1-carbonyl)Imidazo[1,2-a]pyridin-8-yl)phenyl)urea [Compound 33]	44.5 ± 1.2%	
Cc1cc(-c2ccc(F)cc2)c2nc(C(=O)N3CCOCC3)cn2c1 [Compound 15, (8–(4-Fluorophenyl)-6-methylImidazo[1,2-a]pyridine-2-yl)(morpholino)methanone]		31.9 ± 2.9%
Cc1cc(-c2cccc(F)c2)c2nc(C(=O)N3CCOCC3)cn2c1 [Compound 16, (8–(3-Fluorophenyl)-6-methylImidazo[1,2-a]pyridin-2-yl)(morpholino)methanone]		38.2 ± 3.6%
Cc1cc(-c2ccccc2F)c2nc(C(=O)N3CCOCC3)cn2c1 [Compound 17, (8–(2-Fluorophenyl)-6-methylImidazo[1,2-a]pyridin-2-yl)(morpholino)methanone]		14.1 ± 2.7%
Cc1cc(-c2ccc(NC(=O)c3cccc(F)c3)cc2)c2nc(C(=O)N3CCOCC3)cn2c1 [Compound 18, 3-Fluoro-N-(4–(6-methyl-2-(morpholine-4-carbonyl)Imidazo[1,2-a]pyridin-8-yl)phenyl)benzamide]		47.6 ± 3.9%
Cc1cc(-c2cccnc2)c2nc(C(=O)N3CCOCC3)cn2c1 [Compound 20, (6-Methyl-8-(pyridin-3-yl)Imidazo[1,2-a]pyridin-2-yl)(morpholino)methanone]		30.2 ± 2.1%
COc1ccc(-c2cc(C)cn3cc(C(=O)N4CCOCC4)nc23)cn1 [Compound 21, (8–(6-Methoxypyridin-3-yl)-6-methylImidazo[1,2-a]pyridin-2-yl)(morpholino)methanone]		39.9 ± 3%
Cc1cc(-c2ccc(F)cc2)c2nc(C(=O)N3CCCC3)cn2c1 [Compound 22, (8–(4-Fluorophenyl)-6-methylImidazo[1,2-a]pyridin-2-yl)(pyrrolidin-1-yl)methanone]		33.3 ± 4.2%
Cc1cc(-c2cccc(F)c2)c2nc(C(=O)N3CCCC3)cn2c1 [Compound 23, (8–(3-Fluorophenyl)-6-methylImidazo[1,2-a]pyridin-2-yl)(pyrrolidin-1-yl)methanone]		43.9 ± 1.8%
Cc1cc(-c2cccnc2)c2nc(C(=O)N3CCCC3)cn2c1 [Compound 24, (6-Methyl-8-(pyridin-3-yl)Imidazo[1,2-a]pyridin-2-yl)(pyrrolidin-1-yl)methanone]		29.6 ± 2.1%
COc1ccc(-c2cc(C)cn3cc(C(=O)N4CCCC4)nc23)cn1 [Compound 25, (8–(6-Methoxypyridin-3-yl)-6-methylImidazo[1,2-a]pyridin-2-yl)(pyrrolidin-1-yl)methanone]		44.3 ± 1.5%
Cc1cc(-c2ccc(NC(=O)c3cccc(F)c3)cc2)c2nc(C(=O)N3CCCC3)cn2c1 [Compound 26, 3-Fluoro-N-(4–(6-methyl-2-(pyrrolidine-1-carbonyl)Imidazo[1,2-a]pyridin-8-yl)phenyl)benzamide]		57.9 ± 4.6%
CCN(CC)S(=O)(=O)c1cccc(-c2cc(C)cn3cc(C(=O)N4CCCC4)nc23)c1 [Compound 28, N,N-Diethyl-3–(6-methyl-2-(pyrrolidine-1-carbonyl)Imidazo[1,2-a]pyridin-8-yl)benzenesulfonamide]		66.1 ± 4.4%
Cc1cc(-c2cccc(F)c2)c2nc(C(=O)N3CCC(C)CC3)cn2c1 [Compound 29, (8–(3-Fluorophenyl)-6-methylImidazo[1,2-a]pyridin-2-yl)(4-methylpiperidin-1-yl)methanone]		30.4 ± 3.1%
Cc1cc(-c2ccncc2)c2nc(C(=O)N3CCC(C)CC3)cn2c1 [Compound 30, (6-Methyl-8-(pyridin-4-yl)Imidazo[1,2-a]pyridin-2-yl)(4-methylpiperidin-1-yl)methanone]		9.3 ± 1.7%
Cc1cc(-c2cccnc2)c2nc(C(=O)N3CCC(C)CC3)cn2c1 [Compound 31, (6-Methyl-8-(pyridin-3-yl)Imidazo[1,2-a]pyridin-2-yl)(4-methylpiperidin-1-yl)methanone]		28.5 ± 1.6%
